This test deals with T1, hSGLT2 D201A (Homo sapiens, UniProt P31639, D201A).
T1 sequence (P31639 1-672 D201A): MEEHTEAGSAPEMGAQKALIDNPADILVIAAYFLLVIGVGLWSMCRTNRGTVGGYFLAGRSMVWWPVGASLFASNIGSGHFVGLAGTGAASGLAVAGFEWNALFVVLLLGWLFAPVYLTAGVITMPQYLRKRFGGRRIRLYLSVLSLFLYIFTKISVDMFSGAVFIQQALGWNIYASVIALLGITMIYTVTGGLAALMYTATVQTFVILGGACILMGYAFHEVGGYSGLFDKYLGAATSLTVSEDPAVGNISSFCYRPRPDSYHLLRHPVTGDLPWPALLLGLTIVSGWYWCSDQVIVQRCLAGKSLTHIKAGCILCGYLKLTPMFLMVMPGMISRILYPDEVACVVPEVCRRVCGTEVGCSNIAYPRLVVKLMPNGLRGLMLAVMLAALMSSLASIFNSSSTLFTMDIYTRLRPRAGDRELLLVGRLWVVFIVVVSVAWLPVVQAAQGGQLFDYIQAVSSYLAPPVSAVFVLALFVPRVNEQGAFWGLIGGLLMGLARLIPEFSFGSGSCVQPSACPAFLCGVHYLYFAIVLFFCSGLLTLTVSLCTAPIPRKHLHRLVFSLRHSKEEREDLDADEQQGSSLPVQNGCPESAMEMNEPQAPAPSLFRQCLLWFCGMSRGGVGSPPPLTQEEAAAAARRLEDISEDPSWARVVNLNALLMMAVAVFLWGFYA
T1 sequence (Q13113 1-114 partner): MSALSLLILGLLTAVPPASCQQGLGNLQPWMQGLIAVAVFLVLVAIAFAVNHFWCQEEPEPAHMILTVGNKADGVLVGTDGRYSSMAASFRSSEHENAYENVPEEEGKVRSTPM
The test is described as follows: α-MG uptake in HEK293 cells, D201A mutant. The test is classed as cell-based. Also on record: expressed in transfected cells. An excerpt: hSGLT2 complementary DNA and human MAP17 cDNA were synthesized and codon-optimized for expression in human cell lines. Both cDNAs were cloned into the pcDNA3.4 vector. The hSGLT2 sequence was fused with an N-terminal signal sequence from human trypsinogen 1, a His10 tag, and sfGFP, followed by a human rhinovirus 3C protease (HRV3C protease) recognition site. Point mutations were introduced into this construct using site-directed mutagenesis. These plasmids were utilized for all experimental procedures conducted in this study. […]
Cell lysates were deproteinized by adding acetonitrile containing candesartan as the internal standard. The α-MG concentration was quantified via liquid chromatography–tandem mass spectrometry (LC–MS/MS) using the internal standard method.
Cellular protein content was determined using a bicinchoninic acid protein assay kit (Thermo Fisher Scientific). The uptake of α-MG was expressed as the ratio of concentration in the cells (in pmol per mg protein) to concentration in the medium (in pmol μl^−1); this is known as the cell-to-medium ratio (in μl per mg protein).
In the inhibition study, the cell-to-medium ratio of cells transfected with the empty vector was used as the background. The specific α-MG uptake was calculated by subtracting this background from the total cell-to-medium ratio and normalized to the uptake achieved without the inhibitor. […]

One compound from publication PMC10803289, “Transport and inhibition mechanism of the human SGLT2–MAP17 glucose transporter” (Nature Structural & Molecular Biology, 2023) can be followed below.

Several values for one entry are separate records, joined by “and”; a condition that tells them apart may be missing. Equal values may be shown once.

As to `CO[C@H]1O[C@H](CO)[C@@H](O)[C@H](O)[C@H]1O` [α-MG, α-methyl-D-glucopyranoside], the “uptake of α-MG (in words)” value (D201A mutant) is listed as “No clear uptake”. Besides, where the note is “Fig. 3h, D201A”, the α-MG uptake was 6.25 μL/mg-protein and 10.67 μL/mg-protein and 6.52 μL/mg-protein.
